Results taken from US7999119B2, “Compounds having CRTH2 antagonist activity” (Oxagen Limited, priority 2006, dated 2011).
pIC50: −log10 of the molar value. “And” between values parts separate entries of the source, which are not always exact repeats. Equal values may be shown once. Read-outs that look alike come from different tables or passages of the source.

Key:
[1] = test system: PGD2 induced eosinophil shape change; assay: Human whole blood eosinophil shape change assay; assay type: cell-based; details: Homo sapiens, Eosinophil
Protocol: Human Whole Blood Eosinophil Shape Change Assay
Compounds 1 to 3 were assayed for their effect on PGD2 induced eosinophil shape change and were compared with Comparator Compounds A to G.
Shape Change Assay in Whole Blood
Compounds (1 μl, 200× final concentration) were added directly to 200 μl whole blood, mixed well and incubated for 15 min, 37° C., 5% CO2. After this time, cell shape was fixed by addition of 300 μl Cytofix™ buffer (BD Biosciences), 15 min on ice. 10 ml RBC lysis buffer was added to the fixed cells, incubated 5 min, at room temperature and centrifuged, 300×g for 5 min. Supernatant (containing lysed red cells) was removed and the lysis step was repeated. Leukocytes were resuspended in 250 μl RPMI/10% FCS and shape change analysed by FACS. Eosinophils were gated out based on their autofluorescence and 2000 eosinophil events were counted per sample. Data were analysed in triplicate.

[2] = Pharmacokinetics following oral administration in the rat; assay type: in vivo; details: 3 mg/kg; for Fold over IC50 at 24 h: mean blood concentration at 24 h (rat, 3 mg/kg p.o.) divided by whole blood IC50 in ng/ml
Protocol: Investigation of Pharmacokinetics of Compounds of General Formula (I) Following Oral Administration in the Rat
Rats were weighed on the day of dosing.
The test material was prepared as a 0.3 mg/mL suspension in 1% carboxy-methyl-cellulose (CMC).
Three groups of 3 rats were dosed as follows:
Doses were administered as a single oral dose using a gavage tube at a constant dose volume of 10 mL/kg.
At each sampling time point blood samples (approximately 0.3 mL) was taken from a catheter inserted into a lateral tail vein prior to the start of the experiment. The final blood sample (approximately 2 mL) from each animal was taken by cardiac puncture under isoflurane anaesthesia following which the animal was killed by exsanguination. Blood samples were taken into individual heparinised containers. Blood samples were collected at the following times post-dose:
Following collection, the blood samples were centrifuged (approximately 10,000×g, 2 min at 4° C.) and the plasma stored as one aliquot at approximately −20° C. pending analysis of drug concentrations by LC-MS/MS.
The plasma samples were analysed for test material concentrations at BioDynamics using an LC-MS/MS method developed at BioDynamics.

[3] = test system: DK-PGD2-induced blood eosinophilia; assay: Inhibition of DK-PGD2-induced blood eosinophilia in rats; assay type: in vivo, rat; details: female rats, oral dosing 30 min before 10 μg DK-PGD2 intracardiac; ED50 from dose-response curve; the values are: ED50
Protocol: Evaluation of Compounds of General Formula (I) as Inhibitors of 13,14-dihydro-15-keto prostaglandin D2 (DK-PGD2)-Induced Blood Eosinophilia in Rats
The test compound was dissolved in DMSO and diluted with water to give a final dosing volume of 2 ml/kg.
Female rats (175-250 g; UH colony) were dosed orally with test compound (or vehicle).
30 min after dosing all animals were anaesthetised with isoflurane.
Following induction of anaesthesia, animals receive an intracardiac injection of 10 μg DK-PGD2 in 0.3 ml heparinised (10 U/ml) saline. Control animals received an injection of 0.3 ml heparinised saline.
60 min after the intracardiac injection, animals were injected with an overdose of pentobarbitone sodium and a blood sample was taken (into heparin) by cardiac puncture while the rat was anaesthetised but not dead.
An aliquot of blood (100 μl) was added to Turk's solution and the total leukocyte count determined with a haemocytometer.
A further aliquot of blood (500 μl) was mixed with an equal volume of 4% Dextran (mw 500,000) and the erythrocytes allowed to settle. A cytospin preparation was made from the resulting leukocyte rich fraction.
Cytospin preparations were fixed with methanol (5 min) and stained with May-Grunwald (5 min) and Giemsa (15 min) stains. Finally cytospins were washed in phosphate buffer (pH6.8) and air dried.
Differential leukocyte counts were obtained from the cytospin preparations.
Blood eosinophil numbers were determined from the total leukocyte count and the percentage eosinophils (differential count).
Because it was impractical to generate sufficient data in any given experiment, data were obtained over a number of replicate experiments. Data from these replicate experiments were pooled, to provide at least 5 animals in each group and a dose-response curve fitted following a significance test (Mann Whitney) to determine whether or not DK-PGD2 caused a significant increase in blood eosinophils (GraphPad, Prism). A difference between groups was taken to be significant when P<0.05. ED50 values were calculated from the dose-response curve.

[4] = rat, 3 mg/kg p.o, individual male animals

## Cc1c(Cc2ccc3ccccc3n2)c2cc(F)ccc2n1CC(=O)O [Compound A, (5-Fluoro-2-methyl-3-quinolin-2-ylmethyl-indol-1-yl)-acetic acid, reference compound]
[1]; 10 nm PGD2-induced eosinophil shape change, human whole blood, read-out: Whole Blood IC50
  pIC50: 6.99
[1]; Table 12 summary of whole blood eosinophil shape change IC50, read-out: IC50 (μmol)
  pIC50: 6.99
[1]; whole blood eosinophil shape change IC50 converted to ng/mL, read-out: IC50
  IC50: 0.0358 µg/mL
[2]; male, rat, plasma, po, rat, 3 mg/kg oral, 0.25 h, mean, read-out: Concentration in Blood, Mean
  concentration at 0.25 h: 120 ng/mL
[2]; male, rat, plasma, po, rat, 3 mg/kg oral, 0.5 h, individual male animals, read-out: Concentration in Blood
  concentration at 0.5 h: 426 ng/mL
[2]; male, rat, plasma, po, rat, 3 mg/kg oral, 0.5 h, mean, read-out: Concentration in Blood, Mean
  concentration at 0.5 h: 357 ng/mL
[2]; male, rat, plasma, po, rat, 3 mg/kg oral, 1 h, individual male animals, read-out: Concentration in Blood
  concentration at 1 h: 875 ng/mL
[2]; male, rat, plasma, po, rat, 3 mg/kg oral, 1 h, mean, read-out: Concentration in Blood, Mean
  concentration at 1 h: 779 ng/mL
[2]; male, rat, plasma, po, rat, 3 mg/kg oral, 2 h, individual male animals, read-out: Concentration in Blood
  concentration at 2 h: 1420 ng/mL
[2]; male, rat, plasma, po, rat, 3 mg/kg oral, 2 h, mean, read-out: Concentration in Blood, Mean
  concentration at 2 h: 1250 ng/mL
[2]; male, rat, plasma, po, rat, 3 mg/kg oral, 4 h, individual male animals, read-out: Concentration in Blood
  concentration at 4 h: 923 ng/mL
[2]; male, rat, plasma, po, rat, 3 mg/kg oral, 4 h, mean, read-out: Concentration in Blood, Mean
  concentration at 4 h: 857 ng/mL
[2]; male, rat, plasma, po, rat, 3 mg/kg oral, 6 h, individual male animals, read-out: Concentration in Blood
  concentration at 6 h: 404 ng/mL
[2]; male, rat, plasma, po, rat, 3 mg/kg oral, 6 h, mean, read-out: Concentration in Blood, Mean
  concentration at 6 h: 451 ng/mL
[2]; male, rat, plasma, po, rat, 3 mg/kg oral, 8 h, mean, read-out: Concentration in Blood, Mean
  concentration at 8 h: 354 ng/mL
[2]; male, rat, plasma, po, rat, 3 mg/kg oral, 24 h, mean, read-out: Concentration in Blood, Mean
  concentration at 24 h: 43.7 ng/mL
[2]; male, rat, plasma, po, rat, 3 mg/kg p.o, individual male animals, read-out: AUCinf
  AUC(0-inf): 8570 ng·h/mL
[2]; male, rat, plasma, po, rat, 3 mg/kg p.o, individual male animals, read-out: Cmax
  Cmax: 1420 ng/mL
[2]; male, rat, plasma, po, rat, 3 mg/kg p.o, individual male animals, read-out: Tmax
  Tmax: 2 h
[2]; male, rat, plasma, po, rat, 3 mg/kg p.o, mean, summary without unit (Table 12), read-out: AUCinf (mean)
  AUC(0-inf): 8160 ng·h/mL
[2]; male, rat, plasma, po, rat, 3 mg/kg p.o, mean, summary without unit (Table 12), read-out: Cmax (mean)
  Cmax: 1250 ng/mL
[2]; male, rat, plasma, po, rat, 3 mg/kg p.o, mean, read-out: AUCinf, Mean
  AUC(0-inf): 8160 ng·h/mL
[2]; male, rat, plasma, po, rat, 3 mg/kg p.o, mean, read-out: Cmax, Mean
  Cmax: 1250 ng/mL
[2]; male, rat, plasma, po, rat, 3 mg/kg p.o, mean, read-out: Tmax, Mean
  Tmax: 2 h
[2]; male, rat, plasma, po, rat, 3 mg/kg p.o, mean, read-out: T½, Mean (converted)
  half-life: 4.8 h
[2]
  Fold over IC50 at 24 h: 1.2
[2]; listed as Compound (A)
  Fold over IC50 at 24 h: ca. 1.2
[2]; rat, 3 mg/kg oral, 0.25 h, individual male animals
  Concentration in Blood: 139.1 ng/mL and 153.9 ng/mL and 68.3 ng/mL
[2]; rat, 3 mg/kg oral, 0.5 h, individual male animals
  Concentration in Blood: 388.4 ng/mL and 256.3 ng/mL
[2]; rat, 3 mg/kg oral, 1 h, individual male animals
  Concentration in Blood: 923.2 ng/mL and 538.8 ng/mL
[2]; rat, 3 mg/kg oral, 2 h, individual male animals
  Concentration in Blood: 1309.0 ng/mL and 1013.6 ng/mL
[2]; rat, 3 mg/kg oral, 4 h, individual male animals
  Concentration in Blood: 820.5 ng/mL and 827.0 ng/mL
[2]; rat, 3 mg/kg oral, 6 h, individual male animals
  Concentration in Blood: 514.8 ng/mL and 432.6 ng/mL
[2]; rat, 3 mg/kg oral, 8 h, individual male animals
  Concentration in Blood: 305.6 ng/mL and 521.9 ng/mL and 235.5 ng/mL
[2]; rat, 3 mg/kg oral, 24 h, individual male animals
  Concentration in Blood: 51.8 ng/mL and 79.2 ng/mL and 0.0 ng/mL
[2]; [4]
  AUCinf: 10429.2 ng·h/mL and 5473.9 ng·h/mL
  Cmax: 1309.0 ng/mL and 1013.6 ng/mL
  T½: 6.1 hours (2×) and 2.2 hours
[2]; rat, 3 mg/kg p.o, mean, summary without unit (Table 12), in ng/mL
  Cmax (mean): 1246
[2]; rat, 3 mg/kg p.o, mean, summary without unit (Table 12), in ng·h/mL
  AUCinf (mean): 8158
[3]
  Potency in inhibition of DK-PGD2-induced blood eosinophilia: 37 mg/kg
